# Data reported in patent publication US9045403B2 (Coyote Pharmaceuticals, Inc., priority 2012, dated 2015).
# Key:
# [1] = tested on: Murine neuro2A neuroblastoma cells; assay: Neurite outgrowth of neuro2A cells inhibited with GGTI-298 (Example 30); format: cell-based, mouse; conditions: for Median Counts of cells with neurite outgrowth: CNS-102 vs CNS-103 experiment (no inhibition 60.3, PBS 18.5); for Relative %: relative to uninhibited count
# Description: Differentiation was induced and cells incubated with geranylgeranyl transferase I inhibitor, GGTI-298. After 24 h digital images were taken and neurite outgrowth was quantified. The comparisons of the neuroprotective effect of these three compounds are shown below.
# The estimated mean log10 counts, from five replicate wells for each treatment group were calculated by PROC GLM in SAS assuming a pooled estimate of variation.
# The estimated mean log10 counts from five replicate wells for each treatment group were calculated by PROC GLM in SAS assuming a pooled estimate of variation.
# Differences in mean log(counts) between treatments for each concentration were calculated using PROC GLM in SAS. The p-value given is for the comparison of the estimated difference to zero, the expected difference value for no treatment effect. The anti-log of the differences represent the estimated ratio of counts (relative effect on inhibition) and are tabulated below along with the lower and upper 95% confidence intervals.
# [2] = tested on: Mouse Neuro2A neuroblastoma cells; assay: Neuro2A cells with neurites after GGTI-298 (Example 16); format: cell-based; conditions: 10 μM, 48 hrs
# Description: Mouse Neuro2A neuroblastoma cells were cultured in DMEM supplemented with 10% FBS for 24 hrs. […] Then differentiation was induced by retinoic acid in DMEM supplemented with 2% FBS. The cell culture was incubated with a Geranylgeranyl Transferase inhibitor, GGTI-298. […]
# HSP70 [3] = assay: HSP70 expression in Neuro2A cells by western blot; format: cell-based, mouse; conditions: for HSP70 western signal (absence of compounds = 1.00): 48 hours, then GGTI-298
# Description: Differentiation was induced and cells incubated with geranylgeranyl transferase I inhibitor, GGTI-298. Cells were harvested and lysates were prepared and analyzed by western blot for HSP70 and HSP90. Western signals in the absence of the compounds were normalized as 1.00.
# [4] = tested on: Sprague-Dawley rats injected with Kainic acid; assay: Kainic acid induced neurodegeneration and seizure in rats (Example 21); format: in vivo, rat; conditions: oral
# Description: Seizure behaviors were observed and scored (Ref. R. J. Racine, Modification of seizure activity by electrical stimulation: II. Motor seizure, Electroencephalogr. Clin. Neurophysiol. 32 (1972) 281-294. Modifications were made for the methods). Brain tissues of rats were sectioned on histology slides, and neurons in hippocampus tissues were stained by Nissl. Neurons damaged by Kainic acid and behavior scores were quantified.
# Rap1 = assay: Prenylation of Rap1 in Neuro2A cells with GGTI-298 (western blot); format: cell-based, mouse; conditions: 100 nM; percentage of control treatments (GGTI only)
# Description: Mouse neuroblastoma Neuro2A cells were cultured in DMEM supplemented with 10% FBS for 24 hrs. The cells were treated with 102GGA derivative compounds for 24 hrs first before GGTase inhibitor GGTI-298 was added to the culture medium for additional 24 hr incubation. […] Both un-prenylated and total Rap1 protein bands were quantified using Image J and normalized to their respective loading control GAPDH. The results for control and each compound treatment were calculated as the ratio of normalized un-prenylated Rap1 to total Rap1, and averaged from two biological repeats of one experiment. The final results were presented as a percentage of the control treatments (GGTI only) from the same batch experiment. The data shown in the chart were averaged from two repeats of one experiment and presented as the ratio of normalized un-prenylated Rap1 to total Rap1. Compound ID numbers in table refer to structures in Table 1 and Table 2.
# Neuro2A cells = Neuro2A cells that extended neurites, with GGTI-298 (Example 18); format: cell-based, mouse; conditions: 0.1-1 μM, vehicle 0.0-0.20
# Description: After differentiation was induced, cells that extended neurites were counted.
# HSP70 [5] = assay: HSP70 levels in Neuro 2A cells by ELISA; format: cell-based, mouse; conditions: 10 uM compound for 48 hrs, then GGTI-298 24 hrs
# Description: Mouse neuroblastoma 2a cells were cultured in DMEM with 10% FBS for 24 hrs. […] After 24 hrs cells were harvested and lysates were prepared and analyzed by ELISA for HSP70. Compound ID numbers in table refer to structures in Table 1 and Table 2.
# [6] = tested on: Neuro2A cells treated with A-beta (O); assay: Rescue of amyloid-beta oligomer induced cytotoxicity in Neuro 2A cells (CellTiter-Glo); format: cell-based; conditions: Mus musculus, N2a, compound 1 uM, A-beta (O) together with compound 48 hr, read-out: % viability vs. untreated
# Description: Preparation of amyloid-beta oligomer (A-beta (O)): Synthetic wild type A-beta (1-42) was purchased from American Peptide, and first dissolved with hexafluoroisopropanol (HFIP), then dried in the blowing tissue culture hood overnight to form a film in the eppendorf tube. The A-beta peptide film was first resuspended with DMSO to a concentration of 5 mM, further diluted with DMEM containing N2 supplement (Invitrogen) to achieve a concentration of 100 μM, and then sonicated in room temperature water bath for 10 minutes. The 100 μM peptide solution was then incubated at 4° C. for 24 hr and thoroughly vortexed before applied to cells.
# Mouse neuroblastoma Neuro2A cells were plated in 96-well plates and cultured in DMEM supplemented with 10% FBS for 24 hr. […] At the end of incubation, cells were harvested and subjected to viability assay using CellTiter-Glo Luminescent Cell Viability Assay Kit (Promega). The data for each treatment was calculated as average of 4 replicates and normalized to that of A-beta (O) treated only. Compound ID numbers in table refer to structures in Table 1 and Table 2.
# [7] = 10000 nM, CNS-102 vs CNS-103 experiment
compound,measurement,setting,value
CC(=O)CC/C=C(/C)CC/C=C(\C)CC/C=C(\C)CCC=C(C)C [CNS-103],Median Counts of cells with neurite outgrowth,[1]; 10 nM,26.7
same,Relative %,"[1]; 10 nM, CNS-102 vs CNS-103 experiment",44.3%
same,Median Counts of cells with neurite outgrowth,[1]; 100 nM,29.3
same,Relative %,"[1]; 100 nM, CNS-102 vs CNS-103 experiment",48.6%
same,Median Counts of cells with neurite outgrowth,[1]; 1000 nM,28.7
same,Relative %,"[1]; 1000 nM, CNS-102 vs CNS-103 experiment",47.6%
same,Protection %,[1]; [7],−5.3%
same,Median Counts of cells with neurite outgrowth,[1]; 10000 nM,16.3
same,Relative %,[1]; [7],27%
same,maximum protection,"[1]; CNS-102 vs CNS-103 experiment, FIG. 4B",~26%
same,Mean of cell numbers (Arbitrary units),[2],0.195 Arbitrary units
same,HSP70 western signal (absence of compounds = 1.00),HSP70 [3]; 100 nM,1.00
same,HSP70 western signal (absence of compounds = 1.00),HSP70 [3]; 10 μM,0.99
same,induction of HSP70 expression (in words),"HSP70 [3]; Neuro2A cells, western blot",failed to induce expression of HSP70
same,Mean of Hippocampus CA3 neurons damaged (Arbitrary units),[4]; 12 mg/Kg rat,8.16 Arbitrary units
same,Mean of Hippocampus CA3 neurons damaged (Arbitrary units),[4]; 25 mg/Kg rat,10.64 Arbitrary units
same,unprenylated/total RAP1 (%),Rap1,96%
same,Mean of cell numbers (Arbitrary units),Neuro2A cells,0.20-0.45 Arbitrary units
"CC(C)=CCC/C(C)=C/CC/C(C)=C/COC(=S)NC1CC1 [Compound 9d, Cyclopropyl 2E, 6E-farnesyl thiocarbamate]",HSP70 ELISA signal (absence of compound normalized as 1.00),HSP70 [5],0.95
CCC(=O)CC/C=C(\C)CC/C=C(\C)CCC=C(C)C [Compound 102],viability at 1 µM,[6],140%
CC(C)=CCC/C(C)=C/CC/C(C)=C/CC/C(C)=C/CCC(C)=NO [Compound 103],viability at 1 µM,[6],128%
